Six molecules from patent US11319318B2, “Pyridinones and isoquinolinones as inhibitors of the bromodomain BRD9” (Boehringer Ingelheim International GmbH, priority 2015, dated 2022) can be followed below.

pIC50: −log10 of the molar value.

By pIC50 is commonly meant the IC50 on a negative log10 scale, so that one unit is a factor of ten. Higher therefore signals a small IC50.

For the assay, the target named is T1, bromodomain of BRD9 (GST fusion) / acetylated histone H4 peptide (BET Bromodomain Ligand) (Homo sapiens, UniProt Q9H8M2).
T1 construct: A GST fusion protein of the bromodomain of BRD9; purchased BPS Biosciences #32519
T1 sequence (Q9H8M2 136-240 limits assumed): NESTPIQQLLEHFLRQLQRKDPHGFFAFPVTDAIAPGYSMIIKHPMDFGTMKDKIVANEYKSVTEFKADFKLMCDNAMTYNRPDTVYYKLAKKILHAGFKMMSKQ
Description: BRD9-H4 Tetraacetylated Peptide Inhibition AlphaScreen. It is filed as binding. The source says: BRD9-H4 Tetraacetylated Peptide Inhibition AlphaScreen
This assay is used to identify compounds which inhibit the interaction of the bromodomain of BRD9 with a tetra-acetylated peptide based on the sequence of histone H4 (termed the “BET Bromodomain ligand” as purchased from BPS Biosciences).
A GST fusion protein of the bromodomain of BRD9 and an acetylated histone H4 peptide (the “BET Bromodomain Ligand” are purchased as part of the BRD9 Inhibitor Screening Assay Kit at BPS Biosciences (Cat. Number: #32519)
AlphaScreen Beads (Perkin Elmer):
AlphaLISA Glutathione Acceptor Beads
AlphaScreen Streptavidin Donor Beads
Assay plates: Proxiplate-384 PLUS, white (PerkinElmer)
The assay is done in a darkened room below 100 Lux.
Compounds are dispensed onto assay plates using an Access Labcyte Workstation with the Labcyte Echo 550 from a DMSO solution. For the chosen highest concentration of 100 μM, 150 nl of compound solution are transferred from a 10 mM DMSO solution. A series of 11 concentrations is transferred for each compound at which each concentration is five-fold lower than the previous one (i.e. 100 μM, 20 μM, 4 μM, 0.8 μM, etc). DMSO is added such that every well has a total of 150 nl of DMSO.
15 μl of the resulting mix are added to the assay plates that contain 150 nl of the compounds. After 60 min at room temperature the signal is measured in a PerkinElmer Envision HTS Multilabel Reader using the AlphaScreen specifications from PerkinElmer.
Each plate contains negative controls where biotinylated BET Bromodomain Ligand and GST-BRD9 are left out and replaced by assay buffer. Negative control values are entered as low basis value when using the software GraphPad Prism for calculations.
(In general: Alpha assays give light when donor and acceptor beads are brought close together.)
With `Cc1ccc(-c2cn(C)c(=O)c3cccc(O)c23)cc1NS(C)(=O)=O` [II-36, N-[5-(5-Hydroxy-2-methyl-1-oxo-1,2-dihydro-isoquinolin-4-yl)-2-methyl-phenyl]-methanesulfonamide], the pIC50 is 5.28.
In the case of `Cc1ccc(-c2cn(C)c(=O)c3cc(N)ccc23)cc1NS(C)(=O)=O` [II-37, N-[5-(7-Amino-2-methyl-1-oxo-1,2-dihydro-isoquinolin-4-yl)-2-methyl-phenyl]-methanesulfonamide], the pIC50 is 5.57.
With `Cc1ccc(-c2cn(C)c(=O)c3cccc(N)c23)cc1NS(C)(=O)=O` [II-38, N-[5-(5-amino-2-methyl-1-oxo-1,2-dihydro-isoquinolin-4-yl)-2-methyl-phenyl]-methanesulfonamide], the negative-log IC50 (pIC50) was 5.07.
`CNc1cccc2c(=O)n(C)cc(-c3ccc(C)c(NS(C)(=O)=O)c3)c12` [II-39, N-[2-Methyl-5-(2-methyl-5-methylamino-1-oxo-1,2-dihydro-isoquinolin-4-yl)-phenyl]-methanesulfonamide] had a negative logarithm of the IC50 (pIC50) of 5.11.
To `CNc1ccc2c(-c3ccc(C)c(NS(C)(=O)=O)c3)cn(C)c(=O)c2c1` [II-40] belongs 5.26; to `CCn1cc(-c2ccc(C)c(NS(C)(=O)=O)c2)c2cc[nH]c2c1=O` [III-1, N-[5-(6-Ethyl-7-oxo-6,7-dihydro-1H-pyrrolo[2,3-c]pyridin-4-yl)-2-methyl-phenyl]-methanesulfonamide], 6.19.
